The source made the active and inactive calls. The rule behind the calls is not given here.
Columns and labels:
[1] = Induction of cell cycle arrest in docetaxel-resistant human MDA-MB-231-DTR cells assessed as accumulation at G0/G1 phase at 5 uM incubated for 48 hrs by PI staining based flow cytometry analysis (reference value: 75.49%); type: functional
[2] = Induction of cell cycle arrest in docetaxel-resistant human MDA-MB-231-DTR cells assessed as accumulation at S phase at 2.5 uM incubated for 36 hrs by PI staining based flow cytometry analysis (reference value: 11.57%); type: functional
MDA-MB-231 [3] = experiment: Induction of apoptosis in docetaxel-resistant human MDA-MB-231-DTR cells assessed as upregulation of cleaved-PARP expression level at 2.5 to 10 uM incubated for 48 hrs by Western blot analysis; type: functional, cell-based; conditions: dose 2.5-10 µM
[4] = Induction of cell cycle arrest in docetaxel-resistant human MDA-MB-231-DTR cells assessed as accumulation at subG1 phase at 5 uM incubated for 36 hrs by PI staining based flow cytometry analysis (reference value: 0.41%); type: functional
MDA-MB-231 [5] = experiment: Inhibition of cell migration in docetaxel-resistant human MDA-MB-231-DTR cells assessed as downregulation of vimentin expression level at 3 to 6 uM incubated for 24 hrs by Western blot analysis; type: functional, cell-based; conditions: dose 3-6 µM
MDA-MB-231 [6] = experiment: Induction of cell cycle arrest at G2/M phase in docetaxel-resistant human MDA-MB-231-DTR cells assessed as downregulation of c-Myc expression level at 2.5 to 10 uM incubated for 36 hrs by Western blot analysis; type: functional, cell-based; conditions: dose 2.5-10 µM
MDA-MB-231 [7] = experiment: Induction of apoptosis in docetaxel-resistant human MDA-MB-231-DTR cells assessed as upregulation of cleaved-caspase-9 expression level at 2.5 to 10 uM incubated for 48 hrs by Western blot analysis; type: functional, cell-based; conditions: dose 2.5-10 µM
[8] = Induction of cell cycle arrest in docetaxel-resistant human MDA-MB-231-DTR cells assessed as accumulation at G2/M phase at 10 uM incubated for 36 hrs by PI staining based flow cytometry analysis (reference value: 13.16%); type: functional
[9] = Induction of cell cycle arrest in docetaxel-resistant human MDA-MB-231-DTR cells assessed as accumulation at subG1 phase at 10 uM incubated for 36 hrs by PI staining based flow cytometry analysis (reference value: 0.52%); type: functional
MDA-MB-231 [10] = experiment: Inhibition of cell migration in docetaxel-resistant human MDA-MB-231-DTR cells assessed as downregulation of Snail expression level at 3 to 6 uM incubated for 24 hrs by Western blot analysis; type: functional, cell-based; conditions: dose 3-6 µM
MDA-MB-231 [11] = experiment: Antitumor activity against docetaxel-resistant human MDA-MB-231-DTR cells xenografted in BALB/c mouse assessed as downregulation of phosphorylated STAT3 level in tumor tissue at 10 mg/kg, ip daily for 12 days by Immunohistochemical analysis; type: functional, organism-based; conditions: time 12.0 day
[12] = target: Signal transducer and activator of transcription 3 (Homo sapiens) (UniProt P40763); experiment: Inhibition of STAT3 phosphorylation at Y705 residue in human MDA-MB-231 cells assessed as decrease in phosphorylated STAT3 level at 5 uM incubated for 24 hrs by Western blot analysis; type: cell-based
Signal transducer and activator of transcription 3 (Homo sapiens), sequence (P40763 whole entry): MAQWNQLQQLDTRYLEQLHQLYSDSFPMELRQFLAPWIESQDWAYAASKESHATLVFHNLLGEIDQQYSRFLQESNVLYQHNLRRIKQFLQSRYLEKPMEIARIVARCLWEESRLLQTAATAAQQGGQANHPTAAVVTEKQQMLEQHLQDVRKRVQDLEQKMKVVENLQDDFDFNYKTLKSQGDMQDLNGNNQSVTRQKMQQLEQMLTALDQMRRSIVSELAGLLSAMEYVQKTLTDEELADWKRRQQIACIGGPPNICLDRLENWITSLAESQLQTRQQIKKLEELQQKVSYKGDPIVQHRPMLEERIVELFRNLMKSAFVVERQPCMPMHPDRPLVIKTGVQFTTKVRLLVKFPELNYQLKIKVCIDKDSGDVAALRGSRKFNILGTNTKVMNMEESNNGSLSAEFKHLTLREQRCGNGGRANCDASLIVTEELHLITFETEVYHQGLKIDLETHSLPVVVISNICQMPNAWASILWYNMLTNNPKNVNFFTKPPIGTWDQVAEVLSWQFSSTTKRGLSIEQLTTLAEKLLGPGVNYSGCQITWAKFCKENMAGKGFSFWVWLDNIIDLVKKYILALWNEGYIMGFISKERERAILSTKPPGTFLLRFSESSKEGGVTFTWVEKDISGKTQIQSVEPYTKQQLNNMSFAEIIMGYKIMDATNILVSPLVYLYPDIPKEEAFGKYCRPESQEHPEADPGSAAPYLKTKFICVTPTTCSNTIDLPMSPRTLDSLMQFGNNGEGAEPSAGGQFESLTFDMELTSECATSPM

[13] = Toxicity in BALB/c mouse xenografted with docetaxel-resistant human MDA-MB-231-DTR cells assessed as body weight change at 5 mg/kg, ip daily for 12 days; type: organism-based; conditions: in vivo, 288 h, time 12 day
[14] = Induction of apoptosis in docetaxel-resistant human MDA-MB-231-DTR cells assessed as increase in total cell death at 10 uM incubated for 48 hrs by Annexin V-FITC and PI staining based flow cytometry; type: functional
[15] = Induction of cell cycle arrest in docetaxel-resistant human MDA-MB-231-DTR cells assessed as accumulation at S phase at 5 uM incubated for 36 hrs by PI staining based flow cytometry analysis (reference value: 11.57%); type: functional
[16] = Induction of cell cycle arrest in docetaxel-resistant human MDA-MB-231-DTR cells assessed as accumulation at S phase at 5 uM incubated for 48 hrs by PI staining based flow cytometry analysis (reference value: 10.56%); type: functional
[17] = Induction of cell cycle arrest in docetaxel-resistant human MDA-MB-231-DTR cells assessed as accumulation at G0/G1 phase at 5 uM incubated for 36 hrs by PI staining based flow cytometry analysis (reference value: 74.77%); type: functional
[18] = Induction of apoptosis in docetaxel-resistant human MDA-MB-231-DTR cells assessed as increase in total cell death at 5 uM incubated for 48 hrs by Annexin V-FITC and PI staining based flow cytometry; type: functional
MDA-MB-231 [19] = experiment: Antitumor activity against docetaxel-resistant human MDA-MB-231-DTR cells xenografted in BALB/c mouse assessed as reduction in tumor weight at 10 mg/kg, ip daily for 12 days in presence of docetaxel; type: functional, organism-based; conditions: time 12.0 day
MDA-MB-231 [20] = experiment: Antitumor activity against docetaxel-resistant human MDA-MB-231-DTR cells xenografted in BALB/c mouse assessed as reduction in tumor volume at 10 mg/kg, ip daily for 12 days in presence of docetaxel; type: functional, organism-based; conditions: time 12.0 day
[21] = Induction of cell cycle arrest in docetaxel-resistant human MDA-MB-231-DTR cells assessed as accumulation at G2/M phase at 5 uM incubated for 48 hrs by PI staining based flow cytometry analysis (reference value: 13.54%); type: functional
[22] = Induction of cell cycle arrest in docetaxel-resistant human MDA-MB-231-DTR cells assessed as accumulation at G0/G1 phase at 5 uM incubated for 12 hrs by PI staining based flow cytometry analysis (reference value: 75.49%); type: functional
MDA-MB-231 [23] = experiment: Antitumor activity against docetaxel-resistant human MDA-MB-231-DTR cells xenografted in BALB/c mouse assessed as downregulation of Ki67 level in tumor tissue at 10 mg/kg, ip daily for 12 days by Immunohistochemical analysis; type: functional, organism-based; conditions: time 12.0 day
[24] = Antiproliferative activity against docetaxel-resistant human MDA-MB-231-DTR cells assessed as reduction in cell viability incubated for 72 hrs by sulforhodamine B assay; type: functional, cell-based; conditions: MDA-MB-231, 72 h
MDA-MB-231 [25] = experiment: Induction of apoptosis in docetaxel-resistant human MDA-MB-231-DTR cells assessed as downregulation of Bcl2 expression level at 2.5 to 10 uM incubated for 48 hrs by Western blot analysis; type: functional, cell-based; conditions: dose 2.5-10 µM

## O=C(NCCc1c[nH]c2ccccc12)c1cc2c([nH]c3ccccc32)c(C(=O)c2ccc(Br)cc2)n1
[1]
  Activity: 48.08%
[2]
  Activity: 12.13%
MDA-MB-231 [3]
  Activity: Active
[4]
  Activity: 4.35%
MDA-MB-231 [5]
  inhibition: Active
MDA-MB-231 [6]
  Activity: Active
MDA-MB-231 [7]
  Activity: Active
[8]
  Activity: 29.72%
[9]
  Activity: 2.51%
MDA-MB-231 [10]
  inhibition: Active
MDA-MB-231 [11]
  Activity: Active
[12]
  inhibition: Active
[13]
  Activity: Non-Toxic
[14]
  Activity: 61.85%
[15]
  Activity: 20.82%
[16]
  Activity: 12.49%
[17]
  Activity: 51.37%
[18]
  Activity: 18.79%
MDA-MB-231 [19]
  Activity: Active
MDA-MB-231 [20]
  Activity: Active
[21]
  Activity: 12.87%
[22]
  Activity: 88.84%
MDA-MB-231 [23]
  Activity: Active
[24]
  IC50: 2960 nM
MDA-MB-231 [25]
  Activity: Active

Source: ChEMBL document CHEMBL5380808, “Design, Synthesis, and Biological Activity of Marinacarboline Analogues as STAT3 Pathway Inhibitors for Docetaxel-Resistant Triple-Negative Breast Cancer” (J Med Chem, 2023)
